The test system of one test is SW480. The test is described as follows: Antiproliferative activity against human SW480 cells at 10 uM after 24 hrs by MTS assay relative to control. Type of test: functional. The following applies: SW480, 24 h. Background: Tetrazolium assays rely on reduction of a dye to a coloured formazan, in cell work by metabolically active cells.
Another test has as its system HepG2. As to the kind of experiment: Antiproliferative activity against human HepG2 cells at 10 uM after 24 hrs by MTS assay relative to control. In kind it is functional. The following applies: HepG2, 24 h.
Test [1] has as its target T1, Tyrosine-protein phosphatase non-receptor type 1 (Homo sapiens) (UniProt P18031).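 Note: recombinant enzyme assay with pNPP substrate, inhibition read after 30 min versus untreated control.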
T1 sequence (whole entry): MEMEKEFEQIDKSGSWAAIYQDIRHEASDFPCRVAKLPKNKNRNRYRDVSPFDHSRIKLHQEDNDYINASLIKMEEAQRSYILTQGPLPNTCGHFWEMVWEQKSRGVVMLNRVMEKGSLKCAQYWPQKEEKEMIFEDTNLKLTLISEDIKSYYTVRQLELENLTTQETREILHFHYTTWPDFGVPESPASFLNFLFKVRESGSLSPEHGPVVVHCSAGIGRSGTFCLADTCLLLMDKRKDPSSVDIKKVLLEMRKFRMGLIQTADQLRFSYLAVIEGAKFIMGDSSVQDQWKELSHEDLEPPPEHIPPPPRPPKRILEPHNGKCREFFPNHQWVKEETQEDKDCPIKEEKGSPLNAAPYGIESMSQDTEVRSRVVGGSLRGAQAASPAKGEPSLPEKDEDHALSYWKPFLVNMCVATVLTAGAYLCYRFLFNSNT
The note with it: at 10 µM.
Description: Inhibition of recombinant human PTP1B using pNPP as substrate at 10 uM after 30 mins relative to control

Another test has as its system RAW264.7. The test is described as follows: Antiinflammatory activity against mouse RAW264.7 cells assessed as inhibition of LPS-induced nitric oxide production at 10 uM after 24 hrs by Griess assay relative to control. In kind it is functional. The following applies: RAW264.7, 24 h. A general note: Griess reagent forms a coloured azo dye with nitrite.
The target in test [2] is T2, Tyrosinase (Homo sapiens) (UniProt P14679).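 Note: tyrosinase of unspecified origin acting on L-tyrosine, compound preincubated with enzyme for 15 min before adding substrate, inhibition expressed versus control.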
T2 sequence (whole entry): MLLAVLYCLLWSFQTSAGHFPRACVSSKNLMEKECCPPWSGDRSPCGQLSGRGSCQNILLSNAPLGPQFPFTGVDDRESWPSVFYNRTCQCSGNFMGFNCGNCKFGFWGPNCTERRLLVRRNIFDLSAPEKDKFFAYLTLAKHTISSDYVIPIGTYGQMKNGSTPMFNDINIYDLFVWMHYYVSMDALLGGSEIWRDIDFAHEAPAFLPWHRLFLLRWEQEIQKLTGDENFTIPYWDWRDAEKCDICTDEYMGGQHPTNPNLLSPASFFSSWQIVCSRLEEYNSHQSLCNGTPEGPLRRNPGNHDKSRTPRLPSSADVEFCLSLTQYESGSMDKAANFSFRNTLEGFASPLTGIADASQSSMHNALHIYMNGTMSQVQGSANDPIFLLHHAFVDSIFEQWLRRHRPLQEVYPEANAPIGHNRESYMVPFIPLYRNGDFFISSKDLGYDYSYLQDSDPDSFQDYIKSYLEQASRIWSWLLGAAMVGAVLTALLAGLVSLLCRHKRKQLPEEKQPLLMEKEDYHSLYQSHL
The following applies: at 10 µM.
Description: Inhibition of tyrosinase (unknown origin) using L-tyrosine as substrate at 10 uM preincubated for 15 mins followed by substrate addition relative to control

For another test, the system named is A549. As to the kind of experiment: Antiproliferative activity against human A549 cells at 10 uM after 24 hrs by MTS assay relative to control. Type of test: functional. The note with it: A549, 24 h.
The subject of another test is Homo sapiens. As to the kind of experiment: Inhibition of LPS-induced NF-kappaB (unknown origin) transactivation expressed in human SW480 cells at 10 uM administered 1 hr after LPS stimulation measured after 6 hrs by luciferase reporter gene assay relative to control. Type of test: cell-based. (In a reporter assay the amount or activity of a reporter protein is the signal.)

For another test, the system named is MCF7. As to the kind of experiment: Antiproliferative activity against human MCF7 cells at 10 uM after 24 hrs by MTS assay relative to control. The following applies: MCF7, 24 h. In kind it is functional.

By inhibition is commonly meant the share of the control response that was lost under treatment. As for `CC(C)=CCc1c(O)ccc([C@@H]2COc3c(ccc(O)c3CC=C(C)C)C2)c1O` [KANZONOL X], the inhibition at 10 µM in the test on SW480 came to 74.4%; in the test on HepG2 it was 14.9%; in the test on RAW264.7, 15.7%; in the test with A549, 81.6%; with MCF7, 95.9%. The inhibition in test [1] is 15.7%; in test [2], 7.9%; in the test with Homo sapiens it was 32.9%.

`O=C1C[C@@H](c2ccc(O)cc2)Oc2cc(O)ccc21` [LIQUIRTIGENIN]: the inhibition at 10 µM with SW480 is 7.5%; in the test on HepG2 it was 7%; in the test with RAW264.7 it was 2.8%; in the test with A549 it was 0%; in the test on MCF7 it was 7.7%. Further, the inhibition in test [1] amounted to 9.8%; in test [2] it was 4.6%; in the test with Homo sapiens it was 0%.

For `CC1(C)C=Cc2c(ccc3c(=O)c(-c4ccc(O)cc4O)coc23)O1`, the inhibition at 10 µM in the test on SW480 came out at 0%; in the test on HepG2, 30%; in the test on RAW264.7, 12.1%; in the test with A549, 4.9%; in the test on MCF7, 42.1%. The inhibition in test [1] stood at 6%; in test [2], 1%; in the test with Homo sapiens, 1.5%.

Turning to `CC1(C)C=Cc2cc3c(cc2O1)OCC(c1ccc(O)c2c1OC(C)(C)C=C2)=C3`, the inhibition at 10 µM in the test on SW480 came out at 24.3%; in the test with HepG2, 0%; in the test on RAW264.7, 2.6%; in the test with A549 it was 0.7%; with MCF7, 26.6%. The figures for the inhibition (in test [1]; in test [2]; in the test with Homo sapiens) were 95.3%, 1.3% and 0%, respectively.

`CC1(C)C=Cc2cc(C[C@@H](O)C(=O)c3ccc(O)cc3O)ccc2O1`: the inhibition at 10 µM with SW480 was 1.9%; with HepG2 it was 12.3%; in the test with RAW264.7, 9.3%; with A549 it was 6.4%; with MCF7 it was 19.3%. Further, the inhibition came out at 0.2% in test [1], 1% in test [2] and 0% in the test with Homo sapiens.

Regarding `CC(C)=CCc1cc(C[C@@H](O)C(=O)c2ccc(O)c(CC=C(C)C)c2O)ccc1O`, the inhibition at 10 µM in the test on SW480 came to 72%; in the test on HepG2 it was 75.2%; in the test with RAW264.7, 4.1%; in the test on A549, 7.5%; with MCF7, 82.1%. The inhibition in test [1] stood at 37.7%; in test [2] it was 0%; in the test on Homo sapiens, 33.4%.

In the case of `COc1ccc2c(c1)O[C@H]1c3ccc(O)c(CC=C(C)C)c3OC[C@@H]21` [LICOAGROCARPIN], the inhibition at 10 µM in the test on SW480 is 18.2%; with HepG2, 8.3%; with RAW264.7 it was 16.7%; with A549, 37.3%; with MCF7, 52.9%. Also, the inhibition in test [1] was 4.9%; in test [2] it was 0%; in the test on Homo sapiens it was 0%.

`CC(C)=CCc1c(O)cc(O)c2c(=O)c(-c3ccc(O)cc3)coc12`: the inhibition at 10 µM amounted to 21.2% in the test on SW480; 32.4% in the test with HepG2; 1.5% with RAW264.7; 0% in the test on A549; 19.7% in the test with MCF7. The inhibition was 10.6% in test [1], 1.6% in test [2] and 7.1% in the test with Homo sapiens.

Take `CC1(C)C=Cc2cc([C@@H]3CC(=O)c4ccc5c(c4O3)C=CC(C)(C)O5)ccc2O1` [XAMBIOONA]: the inhibition at 10 µM with SW480 is 7.9%; in the test on HepG2, 0%; in the test on RAW264.7, 6.9%; in the test on A549, 10.9%; in the test on MCF7, 0%. The inhibition came to 76.9% in test [1], 0% in test [2] and 0% with Homo sapiens.

The record behind these values is ChEMBL document CHEMBL4052601, “Glycybridins A-K, Bioactive Phenolic Compounds from Glycyrrhiza glabra” (J Nat Prod, 2017).
